Test results reported in patent publication US10626095B2, “Cyanotriazole compounds” (OTSUKA PHARMACEUTICAL CO., LTD., priority 2013, dated 2020).

Experiments:
[1] = test system: NaCT-CHO (CHO cells stably expressing human NaCT); test: Assay of the citric acid cycle activation ([1,5-14C]-citric acid, diffusion of [14C]-CO2); type: cell-based; conditions: 1 hour incubation at 37° C. with [1,5-14C]-citric acid
Outline: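 NaCT-CHO cells (pME-CHO empty-vector cells for non-specific counts) were incubated 1 h at 37 °C in Na+-containing HEPES-Tris pH 7.4 with compound plus an equal volume of 0.4 mM [1,5-14C]-citric acid solution. Residual cell radioactivity was counted, [14C]-CO2 diffusion was taken as (Total−R)/(Total−NS)×100%, and EC50 was derived by regression.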

[2] = test system: Zucker Diabetic Fatty (ZDF) rat; test: Meal load test in type 2 diabetic model rats (postprandial blood glucose); type: in vivo; set-up: unit not given here; conditions: ZDF rats fasted overnight, oral 10 mg/kg in 5% Arabia gum, blood glucose one hour after meal loading (50 kcal/kg)
Outline: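 Overnight-fasted (17 h) ZDF rats, n=6 per group, given compound at 10 or 30 mg/kg orally in 5% Arabia gum 2 h before or just before a 50 kcal/kg AIN-93G meal load. Blood glucose at 1 h; effect expressed as BG1h difference from vehicle.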

Compound | EC50 [1] | BG1h (BG1h difference between compound group and vehicle group) [2] | melting point
N#Cc1[nH]nnc1-c1cccc(/C=C/c2ccc(F)cc2C(F)(F)F)c1 [Example 600, 5-{3-[(E)-2-(4-fluoro-2-trifluoromethyl-phenyl)-vinyl]-phenyl}-3H-[1,2,3]triazole-4-carbonitrile] | 430 nM | −74.0 | 189 to 192 °C
Cc1cc(/C=C/c2cccc(-c3nn[nH]c3C#N)c2)ccc1F [Example 607, 5-{3-[(E)-2-(4-fluoro-3-methyl-phenyl)-vinyl]-phenyl}-3H-[1,2,3]triazole-4-carbonitrile] | 450 nM | −106.8 | 194 to 196 °C
N#Cc1[nH]nnc1-c1cc(Cl)cc(-c2cc3ccccc3s2)c1 [Example 718, 5-(3-benzo[b]thiophen-2-yl-5-chloro-phenyl)-3H-[1,2,3]triazole-4-carbonitrile] | 1510 nM | −147.5 | 231 to 233 °C
Cc1cc(-c2nn[nH]c2C#N)ccc1-c1nccc(C(F)(F)F)n1 [Example 989, 5-[3-methyl-4-(4-trifluoromethyl-pyrimidin-2-yl)-phenyl]-3H-[1,2,3]triazole-4-carbonitrile] | 800 nM | −116.0 | 214 to 218 °C
N#Cc1[nH]nnc1-c1cccc(-c2cc3ccccc3o2)n1 [Example 1573, 5-(6-(benzofuran-2-yl)-pyridin-2-yl)-3H-[1,2,3]triazole-4-carbonitrile] | 1030 nM | −132.7 | 230 to 233 °C
N#Cc1[nH]nnc1-c1cc(N2CCCCC2)nc(-c2ccccc2)n1 [Example 1672, 5-(2-phenyl-6-(piperidin-1-yl)-pyrimidin-4-yl)-3H-[1,2,3]triazole-4-carbonitrile] | 1290 nM | −94.8 | –
N#Cc1[nH]nnc1-c1cc(N2CCCC2)nc(-c2ccccc2)n1 [Example 1676, 5-(2-phenyl-6-(pyrrolidin-1-yl)-pyrimidin-4-yl)-3H-[1,2,3]triazole-4-carbonitrile] | 2220 nM | −49.5 | –
